Values joined by “and” are separate entries in the source; they are usually repeats but may differ in a detail not shown here. Equal values may be shown once. Read-outs that look alike come from different tables or passages of the source.
Tested on: panel of 66 cancer cell lines
Assay: cancer cell line screen, proliferation assay (ATPlite, 72 h)
Format: cell-based, human
Conditions: for IC50: Homo sapiens, read-out: IC50; for raw signal, dose-response (Figure S7a): rep1, rep2, listed as AVX420
Excerpt: Targeting specific molecular vulnerabilities in cancer is considered a key approach to reducing the adverse effects of chemotherapy. However, the events that govern the susceptibility to suppression of the cPLA2α in cancer remain largely unexplored. We therefore took the approach of screening the antiproliferative activity of AVX420 in a panel of 66 cancer cell lines (hereafter referred to as the cancer cell line screen or CCLS) to allow us to investigate molecular and genetic vulnerabilities to the drug.
Screening of compound activities in 66 cancer cell lines was carried out at the Netherlands Translation Research Center. Briefly, proliferation assays were performed 72 h after compound addition using ATPlite 1step reagent (Perkin Elmer). IC50s calculated by non-linear regression analysis were used as a measure of compound activity for investigating associations with genetic factors. A complete description of the laboratory and data analysis methods are available in the Supplementary Information file (Supplemental Methods: Cancer Cell Line Screening).
Cancer cell line screening
Cell proliferation assays
All cell lines were from the American Type Culture Collection (ATCC) Manassas, Virginia (US) and maintained under ATCC-recommended protocols and within 9 pas- […]
DMSO at -80°C until one hour before use. Cells exposed within one hour after thaw-ing of the compound stocks. Final compound concentration range in the assay was 10 […]
cated by supplier. Compounds were dissolved in 100 % DMSO and stored at room temperature. Final concentration of the reference compounds in the assay was 3.16x10-5 M to 3.16x10-9 M. The final DMSO concentration during incubation was […]
Cell lines were plated in Advanced RPMI 1640 (Gibco, ref 12633-012) cell culture medium, containing 1% Glutamax solution (Gibco, ref 35050-038), 0.4% Pen Strep solution (Gibco, ref 15140-122) and bovine serum. The cPLA2α inhibitors were tested in 0.5% bovine serum (HyClone, ref SH30072.03) with the exception of769-P, A-204, BT-549, SR, T98G, which were tested in the presence of 1.0% serum and A-704 and LNCaP FGS, which were tested in the in the presence of 10% serum. Reference com-pounds were all tested in the presence of 10% bovine serum.
Cells were dispensed in a 384-well plate, at a concentration of 200 - 3200 cells per well, depending on the cell line, in 45 μL medium. Plated cells were incubated in a humidified atmosphere of 5% CO2 at 37 °C. After 24 hours, 5 μL of compound dilu-tion was added and plates were further incubated for another 72 hours. After 72 hours, 25 μL of ATPlite 1Step™ (PerkinElmer) solution was added to each well, and subse-quently shaken for 2 minutes. After 10 minutes of incubation in the dark, the lumines-cence was recorded on an Envision multimode reader (PerkinElmer).
Cell growth control. The cellular doubling times of all cell lines are calculated from the t = 0 hours and t = 72 hours growth signals of the untreated cells. If the doubling time is out of specification (0.5 – 2.0 times deviating from historic average) the assay […]
IC50s were calculated by non-linear regression using IDBS XLfit 5. The percentage growth after 72h (%-growth) was calculated as follows: 100% x (luminescence t = 72h / luminescence untreated,t=72h). This was fitted to the 10log compound concentration (conc) by a 4-parameter logistics curve: %-growth = bottom + (top – bottom) / (1+ 10(logIC50 – conc)*hill)), where hill is the Hill-coefficient, and bottom and top the asymptotic mini-mum and maximum cell growth that the compound allows in that assay.
All analysis were performed in the statistical software package R and visualized using GraphPad Prism version 10.0 .0

Compound: CCCCCCCOc1ccc(OCC(=O)c2nc(C(=O)OC)cs2)cc1 [GK420]
- IC50 (SJCRH30): 16.6 µM
- IC50 (SK-N-AS): 14.2 µM
- IC50 (SK-N-FI): 20 µM
- IC50 (SNU-C2B): 19.3 µM
- IC50 (SR): 12.5 µM
- IC50 (SUP-T1, SUP-T1): 17.9 µM
- IC50 (SW48, SW48): 22.6 µM
- IC50 (SW480, SW480): 14.3 µM
- IC50 (SW948, SW948): 21.1 µM
- IC50 (SW-620, SW620): 20 µM
- IC50 (T98G): 42.4 µM
- IC50 (T-24, T24): 14.7 µM
- IC50 (TT): 27.7 µM
- IC50 (U2OS, U-2 OS): 8.01 µM
- IC50 (U-87 MG): 20.3 µM
- IC50 (VA-ES-BJ): 23 µM
- pIC50 (Hs578T, breast): 4,834
- pIC50 (J82, urinary_tract): 4,716
- raw signal, dose-response (Figure S7a) (Jurkat E6.1, Log10 M -5): 18200 and 21347
- raw signal, dose-response (Figure S7a) (Jurkat E6.1, Log10 M -5.5): 21213 and 30520
- raw signal, dose-response (Figure S7a) (Jurkat E6.1, Log10 M -6.5): 2114520 and 2235427
- raw signal, dose-response (Figure S7a) (Jurkat E6.1, Log10 M -7): 2341173 and 2551267
- raw signal, dose-response (Figure S7a) (Jurkat E6.1, Log10 M -7.5): 2392960 and 2321813
- raw signal, dose-response (Figure S7a) (Jurkat E6.1, Log10 M -8): 2356933 and 2578573
- pIC50 (Jurkat, blood): 6,245
- pIC50 (K562, blood): 4,814
- raw signal, dose-response (Figure S7a) (K562, Log10 M -4): 74307 and 48600
- raw signal, dose-response (Figure S7a) (K562, Log10 M -4.5): 1190933 and 1527307
- raw signal, dose-response (Figure S7a) (K562, Log10 M -5): 13304880 and 13536973
- raw signal, dose-response (Figure S7a) (K562, Log10 M -5.5): 15252080 and 16813307
- pIC50 (KU812, blood): 5,039
- raw signal, dose-response (Figure S7a) (KU812, Log10 M -4): 2867 and 5600
- raw signal, dose-response (Figure S7a) (KU812, Log10 M -4.5): 66600 and 77573
- raw signal, dose-response (Figure S7a) (KU812, Log10 M -5.5): 3841840 and 3310707
- raw signal, dose-response (Figure S7a) (KU812, Log10 M -6): 3516360 and 3607827
- raw signal, dose-response (Figure S7a) (KU812, Log10 M -6.5): 3576653 and 3459747
- raw signal, dose-response (Figure S7a) (KU812, Log10 M -7): 3573240 and 3479493
- raw signal, dose-response (Figure S7a) (KU812, Log10 M -7.5): 3396627 and 3395373
- raw signal, dose-response (Figure S7a) (KU812, Log10 M -8): 3660107 and 3329680
- pIC50 (LoVo, large_intestine): 4,781
- pIC50 (MCF7, breast): 4,833
- pIC50 (MG63, bone): 4,644
- pIC50 (MIAPaCa2, pancreas): 4,884
- raw signal, dose-response (Figure S7a) (MOLT-4, Log10 M -4): 6187 and 5813
- raw signal, dose-response (Figure S7a) (MOLT-4, Log10 M -5): 64080 and 125733
- raw signal, dose-response (Figure S7a) (MOLT-4, Log10 M -5.5): 4862747 and 5232987
- raw signal, dose-response (Figure S7a) (MOLT-4, Log10 M -6): 6801747 and 6267067
- raw signal, dose-response (Figure S7a) (MOLT-4, Log10 M -6.5): 7366227 and 6477733
- raw signal, dose-response (Figure S7a) (MOLT-4, Log10 M -7): 6306707 and 6935720
- raw signal, dose-response (Figure S7a) (MOLT-4, Log10 M -7.5): 6661907 and 6660467
- raw signal, dose-response (Figure S7a) (MOLT-4, Log10 M -8): 6315747 and 6363187
- pIC50 (MeWo, skin): 4,711
- pIC50 (NCIH82, lung): 5,315
- pIC50 (NCIH460, lung): 4,489
- pIC50 (RPMI7951, skin): 4,852
- pIC50 (RT4, urinary_tract): 4,477
- pIC50 (SHP77, lung): 4,861
- pIC50 (SKNAS, peripheral_nervous_system): 4,847
- pIC50 (SKNFI, peripheral_nervous_system): 4,698
- raw signal, dose-response (Figure S7a) (SR, Log10 M -4): 11267 and 10080
- raw signal, dose-response (Figure S7a) (SR, Log10 M -4.5): 14987 and 22200
- raw signal, dose-response (Figure S7a) (SR, Log10 M -5): 2171560 and 2105733
- raw signal, dose-response (Figure S7a) (SR, Log10 M -5.5): 2501520 and 2976000
- raw signal, dose-response (Figure S7a) (SR, Log10 M -6): 2547880 and 3067093
- raw signal, dose-response (Figure S7a) (SR, Log10 M -6.5): 2848387 and 3116973
- raw signal, dose-response (Figure S7a) (SR, Log10 M -7): 3165427 and 3131507
- raw signal, dose-response (Figure S7a) (SR, Log10 M -7.5): 3036893 and 2296373
- raw signal, dose-response (Figure S7a) (SR, Log10 M -8): 3222893 and 3197013
- raw signal, dose-response (Figure S7a) (SUP-T1, Log10 M -4): 26587 and 37653
- raw signal, dose-response (Figure S7a) (SUP-T1, Log10 M -5): 6935960 and 5931427
- raw signal, dose-response (Figure S7a) (SUP-T1, Log10 M -5.5): 6473080 and 6695013
- raw signal, dose-response (Figure S7a) (SUP-T1, Log10 M -6): 6511467 and 6816760
- raw signal, dose-response (Figure S7a) (SUP-T1, Log10 M -6.5): 6737680 and 6611147
- raw signal, dose-response (Figure S7a) (SUP-T1, Log10 M -7): 6237733 and 6274507
- raw signal, dose-response (Figure S7a) (SUP-T1, Log10 M -7.5): 6362947 and 6848640
- raw signal, dose-response (Figure S7a) (SUP-T1, Log10 M -8): 6336067 and 6341827
- pIC50 (SUPT1, blood): 4,747
- pIC50 (SW48, large_intestine): 4,646
- pIC50 (SW480, large_intestine): 4,843
- pIC50 (SW620, large_intestine): 4,698
- pIC50 (SW948, large_intestine): 4,676
- pIC50 (T24, urinary_tract): 4,833
- pIC50 (T98G, central_nervous_system): 4,373
- pIC50 (TT, thyroid): 4,558
- pIC50 (U2OS, bone): 5,097
- pIC50 (U87MG, central_nervous_system): 4,692
- pIC50 (VAESBJ, soft_tissue): 4,638

Reference: PMC11696576, “Next generation thiazolyl ketone inhibitors of cytosolic phospholipase A2 α for targeted cancer therapy” (Nature Communications, 2025)
